In US20240083861A1, “HSD17B13 INHIBITORS AND USES THEREOF” (FL2022-001, Inc., priority 2020, published 2024):

Molecular target: T1, Recombinant human HSD17B13 enzyme (Homo sapiens, UniProt Q7Z5P4)
T1 sequence (Q7Z5P4 20-300): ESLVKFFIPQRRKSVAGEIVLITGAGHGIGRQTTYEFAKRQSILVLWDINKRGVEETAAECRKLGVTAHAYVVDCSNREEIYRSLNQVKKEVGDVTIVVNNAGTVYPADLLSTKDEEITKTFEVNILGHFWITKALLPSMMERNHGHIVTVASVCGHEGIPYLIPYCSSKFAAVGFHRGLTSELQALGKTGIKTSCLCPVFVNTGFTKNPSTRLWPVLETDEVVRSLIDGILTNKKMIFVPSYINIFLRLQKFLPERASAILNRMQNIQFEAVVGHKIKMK
Experiment: HSD17b13 NAD(P)H-Glo biochemical assay
Settings: 50 uM estradiol, 1 mM NAD+, NAD(P)H-Glo luminescence; read-out: HSD17β13 IC50
Outline: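 Luminescent NAD(P)H-Glo read-out, taken after 1 hour at RT, measured cofactor reduction. Substrate and cofactor were estradiol at 50 uM and NAD+ at 1 mM final, reacted with the recombinant human enzyme for 3 hours at 37° C in 20 mM Tris pH7.4, 0.002% Tween-20, 0.02% BSA. Compound was pre-incubated with enzyme for 20 minutes at RT.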

| Compound | IC50 [nM] |
| --- | --- |
| Cn1nc(-c2cc(C(F)(F)F)c(F)c(O)c2F)c2cnc(N3CCOCC3=O)cc21 [Compound 9.101, 4-(3-(2,4-Difluoro-3-hydroxy-5-(trifluoromethyl)phenyl)-1-methyl-1H-pyrazolo[4,3-c]pyridin-6-yl)morpholin-3-one] | 100 to 1000 |
| CN1CCN(c2cc3c(cn2)c(-c2cc(C(F)(F)F)c(F)c(O)c2F)nn3C)C(=O)C1 [Compound 9.102, 1-(3-(2,4-Difluoro-3-hydroxy-5-(trifluoromethyl)phenyl)-1-methyl-1H-pyrazolo[4,3-c]pyridin-6-yl)-4-methylpiperazin-2-one] | 100 to 1000 |
| Cn1nc(-c2ccc(F)c(O)c2F)c2cnc(N3CCOC4(CCC4)C3)cc21 [Compound 9.109, 2,6-Difluoro-3-(1-methyl-6-(5-oxa-8-azaspiro[3.5]nonan-8-yl)-1H-pyrazolo[4,3-c]pyridin-3-yl)phenol] | 100 to 1000 |
| CCN1CCN(c2cc3c(cn2)c(-c2cc(C(F)(F)F)c(F)c(O)c2F)nn3C)C(=O)C1 [Compound 9.113, 1-(3-(2,4-Difluoro-3-hydroxy-5-(trifluoromethyl)phenyl)-1-methyl-1H-pyrazolo[4,3-c]pyridin-6-yl)-4-ethylpiperazin-2-one] | 100 to 1000 |
| Cn1nc(-c2cc(C(F)(F)F)c(F)c(O)c2F)c2cnc(N3CC4(CC4)NCC3=O)cc21 [Compound 9.115, 7-(3-(2,4-Difluoro-3-hydroxy-5-(trifluoromethyl)phenyl)-1-methyl-1H-pyrazolo[4,3-c]pyridin-6-yl)-4,7-diazaspiro[2.5]octan-6-one] | 100 to 1000 |
| CN(c1cc2c(cc1F)c(-c1cc(C(F)(F)F)c(F)c(O)c1F)nn2C)C1CCOCC1 [Compound 9.116, 2,6-Difluoro-3-(5-fluoro-1-methyl-6-(methyl(tetrahydro-2H-pyran-4-yl)amino)-1H-indazol-3-yl)-5-(trifluoromethyl)phenol] | < 100 |
| Cn1nc(-c2cc(C(F)(F)F)c(F)c(O)c2F)c2cc(F)c(N3CCN(S(C)(=O)=O)CC34CC4)cc21 [Compound 9.117, 2,6-Difluoro-3-(5-fluoro-1-methyl-6-(7-(methylsulfonyl)-4,7-diazaspiro[2.5]octan-4-yl)-1H-indazol-3-yl)-5-(trifluoromethyl)phenol] | < 100 |
| Cn1nc(-c2cc(C(F)(F)F)c(F)c(O)c2F)c2c(F)cc(N3CCOCC34CC4)cc21 [Compound 9.118, 2,6-Difluoro-3-(4-fluoro-1-methyl-6-(7-oxa-4-azaspiro[2.5]octan-4-yl)-1H-indazol-3-yl)-5-(trifluoromethyl)phenol] | < 100 |
| Cn1nc(-c2cc(C(F)(F)F)c(F)c(O)c2F)c2ncc(N3CCOCC34CC4)cc21 [Compound 9.119, 2,6-Difluoro-3-(1-methyl-6-(7-oxa-4-azaspiro[2.5]octan-4-yl)-1H-pyrazolo[4,3-b]pyridin-3-yl)-5-(trifluoromethyl)phenol] | < 100 |
| CN(c1cc2c(nn1)c(-c1cc(C(F)(F)F)c(F)c(O)c1F)nn2C)C1CCOCC1 [Compound 9.120, 2,6-Difluoro-3-(1-methyl-6-(methyl(tetrahydro-2H-pyran-4-yl)amino)-1H-pyrazolo[4,3-c]pyridazin-3-yl)-5-(trifluoromethyl)phenol] | 100 to 1000 |
| Cn1nc(-c2cc(C(F)(F)F)c(F)c(O)c2F)c2cc(F)c(N3CCOCC34CC4)cc21 [Compound 9.121, 2,6-Difluoro-3-(5-fluoro-1-methyl-6-(7-oxa-4-azaspiro[2.5]octan-4-yl)-1H-indazol-3-yl)-5-(trifluoromethyl)phenol] | < 100 |
| Cn1nc(-c2cc(C(F)(F)F)c(F)c(O)c2F)c2cnc(N3CCN(S(C)(=O)=O)CC34CC4)nc21 [Compound 9.122, 2,6-Difluoro-3-(1-methyl-6-(7-(methylsulfonyl)-4,7-diazaspiro[2.5]octan-4-yl)-1H-pyrazolo[3,4-d]pyrimidin-3-yl)-5-(trifluoromethyl)phenol] | < 100 |
| Cn1nc(-c2cc(C(F)(F)F)c(F)c(O)c2F)c2cnc(N(Cc3ccccc3)C3CCOCC3)cc21 [Compound 9.123, 3-(6-(Benzyl(tetrahydro-2H-pyran-4-yl)amino)-1-methyl-1H-pyrazolo[4,3-c]pyridin-3-yl)-2,6-difluoro-5-(trifluoromethyl)phenol] | < 100 |
| Cn1nc(-c2cc(C(F)(F)F)c(F)c(O)c2F)c2cnc(N3CCS(=O)(=O)CC34CCC4)cc21 [Compound 9.124, 5-(3-(2,4-Difluoro-3-hydroxy-5-(trifluoromethyl)phenyl)-1-methyl-1H-pyrazolo[4,3-c]pyridin-6-yl)-8-thia-5-azaspiro[3.5]nonane 8,8-dioxide] | < 100 |
| Cn1nc(-c2cc(C(F)(F)F)c(F)c(O)c2F)c2cnc(N3CCS(=O)(=O)CC3(C)C)cc21 [Compound 9.125, 4-(3-(2,4-Difluoro-3-hydroxy-5-(trifluoromethyl)phenyl)-1-methyl-1H-pyrazolo[4,3-c]pyridin-6-yl)-3,3-dimethylthiomorpholine 1,1-dioxide] | 100 to 1000 |
| Cn1nc(-c2cc(C(F)(F)F)c(F)c(O)c2F)c2cnc(N3CCS(=O)(=O)CC3C3CC3)cc21 (stereo not shown) [Compound 9.126, 3-Cyclopropyl-4-(3-(2,4-difluoro-3-hydroxy-5-(trifluoromethyl)phenyl)-1-methyl-1H-pyrazolo[4,3-c]pyridin-6-yl)thiomorpholine 1,1-dioxide] | < 100 |
| CN(c1cc(Cl)c2c(-c3cc(C(F)(F)F)c(F)c(O)c3F)nn(C)c2c1)C1CCOCC1 [Compound 9.127, 3-(4-Chloro-1-methyl-6-(methyl(tetrahydro-2H-pyran-4-yl)amino)-1H-indazol-3-yl)-2,6-difluoro-5-(trifluoromethyl)phenol] | 100 to 1000 |
| CN1CCN(c2cc3c(cn2)c(-c2cc(C(F)(F)F)c(F)c(O)c2F)nn3C)C(C2CCOCC2)C1 (stereo not shown) [Compound 9.128, 2,6-Difluoro-3-(1-methyl-6-(4-methyl-2-(tetrahydro-2H-pyran-4-yl)piperazin-1-yl)-1H-pyrazolo[4,3-c]pyridin-3-yl)-5-(trifluoromethyl)phenol] | < 100 |

The next lines start with the values.

| IC50 [nM] | Compound |
| --- | --- |
| < 100 | CN(c1nc2c(cc1F)c(-c1cc(C(F)(F)F)c(F)c(O)c1F)nn2C)C1CCOCC1 [Compound 9.103, 2,6-Difluoro-3-(5-fluoro-1-methyl-6-(methyl(tetrahydro-2H-pyran-4-yl)amino)-1H-pyrazolo[3,4-b]pyridin-3-yl)-5-(trifluoromethyl)phenol] |
| < 100 | Cn1nc(-c2cc(C(F)(F)F)c(F)c(O)c2F)c2cc(F)c(N3CCN(S(C)(=O)=O)CC34CC4)nc21 [Compound 9.104, 2,6-Difluoro-3-(5-fluoro-1-methyl-6-(7-(methylsulfonyl)-4,7-diazaspiro[2.5]octan-4-yl)-1H-pyrazolo[3,4-b]pyridin-3-yl)-5-(trifluoromethyl)phenol] |
| < 100 | Cn1nc(-c2cc(C(F)(F)F)c(F)c(O)c2F)c2cc(F)c(N3CCCOCC34CC4)nc21 [Compound 9.105, 2,6-Difluoro-3-(5-fluoro-1-methyl-6-(8-oxa-4-azaspiro[2.6]nonan-4-yl)-1H-pyrazolo[3,4-b]pyridin-3-yl)-5-(trifluoromethyl)phenol] |
| < 100 | COC1CCN(c2nc3c(cc2F)c(-c2cc(C(F)(F)F)c(F)c(O)c2F)nn3C)CC1 [Compound 9.106, 2,6-Difluoro-3-(5-fluoro-6-(4-methoxypiperidin-1-yl)-1-methyl-1H-pyrazolo[3,4-b]pyridin-3-yl)-5-(trifluoromethyl)phenol] |
| < 100 | Cn1nc(-c2cc(C(F)(F)F)c(F)c(O)c2F)c2cc(F)c(N3CCOCC34CCC4)nc21 [Compound 9.107, 2,6-Difluoro-3-(5-fluoro-1-methyl-6-(8-oxa-5-azaspiro[3.5]nonan-5-yl)-1H-pyrazolo[3,4-b]pyridin-3-yl)-5-(trifluoromethyl)phenol] |
| < 100 | Cn1nc(-c2cc(C(F)(F)F)c(F)c(O)c2F)c2cc(F)c(N3CCOC4(CCC4)C3)nc21 [Compound 9.108, 2,6-Difluoro-3-(5-fluoro-1-methyl-6-(5-oxa-8-azaspiro[3.5]nonan-8-yl)-1H-pyrazolo[3,4-b]pyridin-3-yl)-5-(trifluoromethyl)phenol] |
| < 100 | Cn1nc(-c2cc(C(F)(F)F)c(F)c(O)c2F)c2cnc(N3CCOCC34CCC4)nc21 [Compound 9.110, 2,6-Difluoro-3-(1-methyl-6-(8-oxa-5-azaspiro[3.5]nonan-5-yl)-1H-pyrazolo[3,4-d]pyrimidin-3-yl)-5-(trifluoromethyl)phenol] |
| < 100 | Cn1nc(-c2cc(C(F)(F)F)c(F)c(O)c2F)c2cnc(N3CCNCC34CC4)cc21 [Compound 9.111, 2,6-Difluoro-3-(1-methyl-6-(4,7-diazaspiro[2.5]octan-4-yl)-1H-pyrazolo[4,3-c]pyridin-3-yl)-5-(trifluoromethyl)phenol] |
| < 100 | CN1CCN(c2cc3c(cn2)c(-c2cc(C(F)(F)F)c(F)c(O)c2F)nn3C)C2(CC2)C1=O [Compound 9.112, 4-(3-(2,4-Difluoro-3-hydroxy-5-(trifluoromethyl)phenyl)-1-methyl-1H-pyrazolo[4,3-c]pyridin-6-yl)-7-methyl-4,7-diazaspiro [2.5]octan-8-one] |
| < 100 | Cn1nc(-c2cc(C(F)(F)F)c(F)c(O)c2F)c2cnc(N3CC(=O)NCC34CC4)cc21 [Compound 9.114, 4-(3-(2,4-Difluoro-3-hydroxy-5-(trifluoromethyl)phenyl)-1-methyl-1H-pyrazolo[4,3-c]pyridin-6-yl)-4,7-diazaspiro[2.5]octan-6-one] |
